This note sets out measurements from paper PMC7180491, “Synthesis and Biological Evaluation of Novel (thio)semicarbazone-Based Benzimidazoles as Antiviral Agents against Human Respiratory Viruses” (Molecules, 2020).

Data set [1] has as its system Influenza A/H3N2 (A/HK/7/87). As to the kind of experiment: microbe, parasite or virus in culture. The note with it: read-out: Antiviral EC50 Influenza A/H3N2. It is filed as cell-based, human influenza virus.
The subject of a further data set is human coronavirus 229E. As to the kind of experiment: Antiviral assay against human coronavirus 229E in HEL cells, MTS readout. It is filed as cell-based.
The test system of data set [2] is Influenza A/H1N1 (A/Ned/378/05). As to the kind of experiment: microbe, parasite or virus in culture. Conditions: read-out: Antiviral EC50 Influenza A/H1N1. It is filed as cell-based, human influenza virus.
For data set [3], the system named is Respiratory syncytial virus (RSV; strain Long). It is filed as cell-based. The note with it: read-out: Anti-RSV EC50, microscopic method.
Data set [4] has the same test system. As to the kind of experiment: microbe, parasite or virus in culture. It is filed as cell-based.
A short description of data set [5]: in vitro. Conditions: human.
Data set [6] in a line: in vitro. The note with it: African green monkey.
The nature of data set [7]: in vitro. The note with it: human. This is another data set of the same source.
Data set [8] in a line: in vitro. Conditions: dog.
Data set [9] has as its system four mammalian cell lines.
Where [10] appears, read: Human coronavirus 229E, MTS assay, HEL cells.
The mark [11] stands for this setting: human respiratory syncytial virus, HEp-2, read-out: Antiviral EC50 RSV.

Entries after “also recorded” stand apart in the source; their conditions may differ. Like-named read-outs stand apart in the source and are kept apart here.

Molecule `CC(=NNC(N)=O)c1ccc2c(c1)nc(Cc1ccc(Cl)cc1)n2CCCN(C)C` came in with a melting point of 211 to 212.5 °C.

Molecule `CC(=NNC(N)=S)c1ccc2c(c1)nc(Cn1nc3ccccc3n1)n2CCN(C)C` returned a melting point of 214 to 217 °C.

Take `CC(=NNC(N)=O)c1ccc2c(c1)nc(Cn1nc3ccccc3n1)n2CCN(C)C`: the melting point lay within 209 to 212 °C.

For `CCN(CC)CCCn1c(Cc2ccc(OC)cc2)nc2cc(C(C)=NNC(N)=S)ccc21`, the melting point lay within 180.7 to 182.9 °C.

For the molecule “2-(1-{2-[(2H-Benzo[d][1,2,3]triazol-1-yl)methyl]-1-[3-(N,N-dimethylamino)propyl]-1H-benzo[d]imidazol-5-yl}ethylidene)hydrazine-1-carbothioamide [Compound 22]”, the EC50 was above 100 µM in data set [1]; above 100 µM with human coronavirus 229E; 41 µM in data set [2]; 8.9 µM in data set [3]; 7 µM in [4] (read-out: Antiviral EC50 RSV). For the same molecule, the CC50 was 100 µM in the data set with HEL cells, above 100 µM in the data set on Vero cells, above 100 µM in the data set with MDCK cells and above 100 µM in the data set with Hep-2 cells.

As for “2-(1-{2-[(2H-Benzo[d][1,2,3]triazol-2-yl)methyl]-1-[3-(N,N-diethylamino)propyl]-1H-benzo[d]imidazol-5-yl}ethylidene)hydrazine-1-carbothioamide [Compound 21]”, the “Anti-RSV activity (in words)” value in [4] is “inactive”.

`CC(=NNC(N)=S)c1ccc2c(c1)nc(Cc1ccc(Cl)cc1)n2CCCN(C)C` [Compound 4, 2-{1-[2-(4-Chlorobenzyl)-1-[3-(N,N-dimethylamino)propyl]-1H-benzo[d]imidazol-5-yl]-ethylidene}hydrazine-1-carbothioamide] displayed a melting point of 110 to 111 °C. Further, the “Anti-RSV activity (in words)” value in [4] is “poorly effective; also recorded: inactive”.

Consider `CCN(CC)CCCn1c(Cc2ccccc2)nc2cc(C(C)=NNC(N)=S)ccc21` [Compound 8, 2-(1-{2-Benzyl-1-[3-(N,N-diethylamino)propyl]-1H-benzo[d]imidazol-5-yl}ethylidene)-hydrazine-1-carbothioamide], for which the CC50 in the data set “in vitro [5]” was above 100 µM; in the data set “in vitro [6]”, 44 µM; in “in vitro [7]”, above 100 µM; in “in vitro [8]”, above 100 µM. Also, the EC50 in data set [1] (Influenza A virus, H3N2, MDCK) was above 100 µM; with human coronavirus 229E (setting [10]), 56 µM; in data set [2] (Influenza A virus, H1N1, MDCK), 38 µM; in [4] (setting [11]) it was above 100 µM.

For `CCN(CC)CCCn1c(Cc2ccccc2)nc2cc(C(C)=NNC(N)=O)ccc21` [Compound 16, 2-(1-{1-[3-(N,N-Diethylamino)propyl]-2-benzyl-1H-benzo[d]imidazol-5-yl}ethylidene)-hydrazine-1-carboxamide], the CC50 in the data set “in vitro [5]”, in “in vitro [6]”, in the data set “in vitro [7]” and in “in vitro [8]” was above 100 µM each time. The EC50 in data set [1] (Influenza A virus, H3N2, MDCK) was above 100 µM; in the data set with human coronavirus 229E (setting [10]), 39 µM; in data set [2] (Influenza A virus, H1N1, MDCK), 47 µM; in data set [4] (setting [11]), above 100 µM.

Turning to `CCN(CC)CCCn1c(Cc2ccc(OC)cc2)nc2cc(C(C)=NNC(N)=O)ccc21` [Compound 17, 2-(1-{1-[3-(N,N-Diethylamino)propyl]-2-(4-methoxybenzyl)-1H-benzo[d]imidazol-5-yl}-ethylidene)hydrazine-1-carboxamide], the melting point lay within 190 to 192 °C. The “Cytotoxicity (in words)” value in data set [9] is “produced cytotoxicity in two of the four cell lines”. In data set [1] (Influenza A virus, H3N2, MDCK), the EC50 is above 100 µM. This molecule showed a CC50 in “in vitro [6]” of 43 µM. In the data set with human coronavirus 229E (setting [10]), the EC50 is 41 µM. This molecule also showed a CC50 in “in vitro [8]” above 100 µM. For the same molecule, the EC50 in data set [2] (Influenza A virus, H1N1, MDCK) stood at 47 µM. For the same molecule, the EC50 in [4] (setting [11]) was above 100 µM.

In turn, `CC(=NNC(N)=S)c1ccc2c(c1)nc(Cn1nc3ccccc3n1)n2CCCN(C)C` [Compound 19, 2-(1-{2-[(2H-Benzo[d][1,2,3]triazol-2-yl)methyl]-1-[3-(N,N-dimethylamino)propyl]-1H-benzo[d]imidazol-5-yl}ethylidene)hydrazine-1-carbothioamide] gave a melting point of 212 to 214 °C. For the same molecule, the “Anti-RSV activity (in words)” value in data set [4] was “inactive”.

`NC(=O)c1ncn([C@@H]2O[C@H](CO)[C@@H](O)[C@H]2O)n1` [Ribavirin, reference compound]: the EC50 in [1] (Influenza A virus, H3N2, MDCK) is 7.5 µM; in [2] (Influenza A virus, H1N1, MDCK), 7.4 µM; in data set [4] (setting [11]) it was 6.7 µM. Also, the CC50 in the data set “in vitro [6]” and in the data set “in vitro [7]” was above 250 µM each time.

Take `CC(=O)N[C@H]1[C@H]([C@H](O)[C@H](O)CO)OC(C(=O)O)=C[C@@H]1N=C(N)N` [Zanamivir, reference compound]: the EC50 in data set [1] (Influenza A virus, H3N2, MDCK) stood at 31 µM; in data set [2] (Influenza A virus, H1N1, MDCK), 0.6 µM. Besides, the CC50 in the data set “in vitro [8]” is above 100 µM.

As to “dextran sulfate MW 10,000 [DS-10,000, reference compound]”, the “Antiviral EC50 RSV” value in data set [4] was determined as 0.01 µg/mL.

B1: UDA: UDA lectin, reference in the coronavirus 229E assay (protein, UniProt P11218 24-372, looked up)
Lectin/endochitinase 1: QRCGSQGGGGTCPALWCCSIWGWCGDSEPYCGRTCENKCWSGERSDHRCGAAVGNPPCGQDRCCSVHGWCGGGNDYCSGSKCQYRCSSSVRGPRVALSGNSTANSIGNVVVTEPLFDQMFSHRKDCPSQGFYSYHSFLVAAESFPAFGTIGDVATRKREVAAFLAHISQATSGERSDVENPHAWGLCHINTTTVTENDFCTSSDWPCAAGKKYSPRGPIQLTHNFNYGLAGQAIGEDLIQNPDLVEKDPIISFKTALWFWMSQHDNKPSCHDIVLNANSAANRIPNKGVIGNIISRAFGHDDFAVRSSSIGFYKRYCDMLGVSYGHDLKYWFDNTPSSEFQRIQMRVAA
For the molecule B1, the “Antiviral EC50 Coronavirus 229E” value with human coronavirus 229E was determined as 2.2 µg/mL. In addition, the “CC50 HEL” value in the data set with HEL cells is on record as above 100 µg/mL.
